According to ChEMBL document CHEMBL4411300 (Eur J Med Chem, 2019):
Calls of active or inactive are those of the source. The calls are words filed in the database; no cut-off is given here.

Columns and labels:
[1] = test system: Trypanosoma cruzi; experiment: (§1) Antitrypanosomal activity against Trypanosoma cruzi MHOM/Pe/2011/Arequipa DTU 5 trypomastigotes infected in Balb/c mouse assessed as reduction in Ig-G level in serum at 20 mg/kg, po pretreated once daily for 5 consecutive days starting from day 10 post infection followed by cyclophosphamide-induced immunosuppression on day 100 post infection every 4 days for a maximum of 3 doses measured on day 127 post infection by ELISA; format: functional, organism-based
[2] = (§2) Hepatotoxicity in Balb/c mouse infected with Trypanosoma cruzi MHOM/Pe/2011/Arequipa DTU 5 trypomastigotes assessed as increase in serum ALT to GPT level at 20 mg/kg, po once daily for 5 consecutive days starting from day 10 post infection measured on day 16 post infection relative to control; format: toxicity, organism-based; conditions: in vivo
[3] = Selectivity index, ratio of IC50 for African green monkey Vero cells to IC50 for Trypanosoma cruzi IRHOD/CO/2008/SN3 DTU 1 amastigotes infected in African green monkey Vero cells; format: toxicity; conditions: read-out: Ratio IC50
[4] = test system: Trypanosoma cruzi; experiment: Antitrypanosomal activity against Trypanosoma cruzi MHOM/Pe/2011/Arequipa DTU 5 trypomastigotes infected in Balb/c mouse assessed as reduction in Ig-G level in serum at 20 mg/kg, po once daily for 5 consecutive days starting from day 75 post infection measured on day 81 post infection by ELISA; format: functional, organism-based
[5] = test system: Trypanosoma cruzi; experiment: (§3) Antitrypanosomal activity against Trypanosoma cruzi MHOM/Pe/2011/Arequipa DTU 5 trypomastigotes infected in Balb/c mouse assessed as reduction in Ig-G level in serum at 20 mg/kg, po once daily for 5 consecutive days starting from day 10 post infection measured on day 100 post infection by ELISA; format: functional, organism-based
[6] = (§4) Hepatotoxicity in Balb/c mouse infected with Trypanosoma cruzi MHOM/Pe/2011/Arequipa DTU 5 trypomastigotes assessed as increase in alkaline phosphatase level at 20 mg/kg, po once daily for 5 consecutive days starting from day 75 post infection measured on day 81 post infection relative to control; format: toxicity, organism-based; conditions: in vivo
[7] = as §4, with “change” for “increase”, “127” for “81”, “(reference value: 149 U/L)” for “relative to control”; format: toxicity, organism-based; conditions: in vivo
[8] = as §2, with “Cardiotoxicity” for “Hepatotoxicity”, “change” for “increase”, “LDH” for “ALT to GPT”, “by biochemical analysis (reference value: 3275 U/L)” for “relative to control”; format: toxicity, organism-based; conditions: in vivo
[9] = target: Superoxide dismutase [Cu-Zn] (Homo sapiens, UniProt P00441); experiment: Inhibition of human erythrocyte CuZn-SOD by UV-Visible spectrophotometric method
[10] = test system: Trypanosoma cruzi; experiment: Trypanocidal activity against Trypanosoma cruzi IRHOD/CO/2008/SN3 DTU 1 amastigotes infected in African green monkey Vero cells after 72 hrs by Giemsa-staining based microscopic assay; format: functional, organism-based; conditions: IRHOD/CO/2008/SN3 DTU 1, Vero
[11] = test system: Trypanosoma cruzi; experiment: Antitrypanosomal activity against Trypanosoma cruzi MHOM/Pe/2011/Arequipa DTU 5 epimastigotes assessed as effect on parasite glycolytic pathway by measuring decrease in pyruvate excretion at IC25 after 72 hrs by 1H NMR method; format: functional, organism-based
[12] = test system: Trypanosoma cruzi; experiment: Antitrypanosomal activity against Trypanosoma cruzi MHOM/Pe/2011/Arequipa DTU 5 trypomastigotes infected in Balb/c mouse assessed as reduction in Ig-G level in serum at 20 mg/kg, po once daily for 5 consecutive days starting from day 10 post infection measured on day 16 post infection by ELISA; format: functional, organism-based
[13] = Selectivity index, ratio of IC50 for African green monkey Vero cells to IC50 for Trypanosoma cruzi TINF/CH/1956/Tulahuen DTU 6 amastigotes infected in African green monkey Vero cells; format: toxicity; conditions: read-out: Ratio IC50
[14] = Selectivity index, ratio of IC50 for African green monkey Vero cells to IC50 for Trypanosoma cruzi TINF/CH/1956/Tulahuen DTU 6 epimastigotes; format: toxicity; conditions: read-out: Ratio IC50
[15] = test system: Trypanosoma cruzi; experiment: Trypanocidal activity against Trypanosoma cruzi TINF/CH/1956/Tulahuen DTU 6 amastigotes infected in African green monkey Vero cells after 72 hrs by Giemsa-staining based microscopic assay; format: functional, organism-based; conditions: TINF/CH/1956/Tulahuen DTU 6, Vero
[16] = Selectivity index, ratio of IC50 for African green monkey Vero cells to IC50 for Trypanosoma cruzi IRHOD/CO/2008/SN3 DTU 1 trypomastigotes derived from infected Balb/c albino mouse; format: toxicity; conditions: read-out: Ratio IC50
[17] = Hepatotoxicity in Balb/c mouse infected with Trypanosoma cruzi MHOM/Pe/2011/Arequipa DTU 5 trypomastigotes assessed as increase in total bilirubin level at 20 mg/kg, po once daily for 5 consecutive days starting from day 75 post infection measured on day 81 post infection relative to control; format: toxicity, organism-based; conditions: in vivo
[18] = test system: Trypanosoma cruzi; experiment: Trypanocidal activity against Trypanosoma cruzi MHOM/Pe/2011/Arequipa DTU 5 amastigotes infected in African green monkey Vero cells after 72 hrs by Giemsa-staining based microscopic assay; format: functional, organism-based; conditions: MHOM/Pe/2011/Arequipa DTU 5, Vero
[19] = test system: Trypanosoma cruzi; experiment: Trypanocidal activity against Trypanosoma cruzi TINF/CH/1956/Tulahuen DTU 6 trypomastigotes derived from infected Balb/c albino mouse after 24 hrs by resazurin dye based assay; format: functional, organism-based; conditions: TINF/CH/1956/Tulahuen DTU 6, 24 h
[20] = Selectivity index, ratio of IC50 for African green monkey Vero cells to IC50 for Trypanosoma cruzi MHOM/Pe/2011/Arequipa DTU 5 trypomastigotes derived from infected Balb/c albino mouse; format: toxicity; conditions: read-out: Ratio IC50
[21] = (§5) Cardiotoxicity in Balb/c mouse infected with Trypanosoma cruzi MHOM/Pe/2011/Arequipa DTU 5 trypomastigotes assessed as change in ratio of creatine kinase in muscle to brain at 20 mg/kg, po once daily for 5 consecutive days starting from day 10 post infection measured on day 16 post infection by biochemical analysis (reference value: 535 U/L); format: toxicity, organism-based; conditions: in vivo
[22] = test system: Trypanosoma cruzi; experiment: Antitrypanosomal activity against Trypanosoma cruzi MHOM/Pe/2011/Arequipa DTU 5 epimastigotes assessed as effect on parasite glycolytic pathway by measuring decrease in ethanol excretion at IC25 after 72 hrs by 1H NMR method; format: functional; set-up: scale not given: the % may be the effect or the level left
[23] = test system: Vero; experiment: Cytotoxicity against African green monkey Vero cells assessed as reduction in cell viability after 48 to 72 hrs by resazurin dye based assay; conditions: Chlorocebus sabaeus
[24] = Toxicity in Balb/c mouse assessed as reduction in body mass at 20 mg/kg, po once daily for 5 consecutive days starting from day 10 post infection relative to control; format: organism-based; set-up: scale not given: the % may be the effect or the level left; conditions: in vivo
[25] = test system: Trypanosoma cruzi; experiment: Antitrypanosomal activity against Trypanosoma cruzi MHOM/Pe/2011/Arequipa DTU 5 epimastigotes assessed as effect on parasite glycolytic pathway by measuring decrease in acetate excretion at IC25 after 72 hrs by 1H NMR method; format: functional, organism-based
[26] = as §5, with “Hepatotoxicity” for “Cardiotoxicity”, “serum ALT” for “creatine kinase in muscle”, “GPT level” for “brain”, “127” for “16”, “49” for “535”; format: toxicity, organism-based; conditions: in vivo
[27] = Cardiotoxicity in Balb/c mouse infected with Trypanosoma cruzi MHOM/Pe/2011/Arequipa DTU 5 trypomastigotes assessed as decrease in serum LDH level at 20 mg/kg, po once daily for 5 consecutive days starting from day 75 post infection measured on day 81 post infection relative to control; format: toxicity, organism-based; set-up: scale not given: the % may be the effect or the level left; conditions: in vivo
[28] = Hepatotoxicity in Balb/c mouse infected with Trypanosoma cruzi MHOM/Pe/2011/Arequipa DTU 5 trypomastigotes assessed as increase in ratio of serum AST to GOT level at 20 mg/kg, po once daily for 5 consecutive days starting from day 10 post infection measured on day 16 post infection relative to control; format: toxicity, organism-based; conditions: in vivo
[29] = test system: Trypanosoma cruzi; experiment: as §3, with “parasitaemia” for “Ig-G”, “level” for “level in serum”, “23” for “100”, “Neubauer chamber method relative to control” for “ELISA”; format: functional
[30] = test system: Trypanosoma cruzi; experiment: as §1, with “assessed as parasite-free bone marrow at 20” for “assessed as reduction in Ig-G level in serum at 20”, “from day 75 post infection” for “from day 10 post infection”, “infection by PCR method” for “infection by ELISA”; format: functional

Sequence of Superoxide dismutase [Cu-Zn] (P00441 whole entry): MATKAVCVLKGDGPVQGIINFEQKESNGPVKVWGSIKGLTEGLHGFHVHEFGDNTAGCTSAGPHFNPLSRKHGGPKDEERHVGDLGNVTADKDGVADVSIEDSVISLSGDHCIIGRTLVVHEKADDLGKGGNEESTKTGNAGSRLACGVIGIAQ

| Structure (SMILES) | Activity [1] | Activity [2] | selectivity ratio [3] | Activity [4] | Activity [5] | Activity [6] | Activity [7] | Activity [8] | IC50 [9] | IC50 [10] | Activity [11] | Activity [12] | selectivity ratio [13] | selectivity ratio [14] | IC50 [15] | selectivity ratio [16] | Activity [17] | IC50 [18] | IC50 [19] | selectivity ratio [20] | also measured |
| --- | --- | --- | --- | --- | --- | --- | --- | --- | --- | --- | --- | --- | --- | --- | --- | --- | --- | --- | --- | --- | --- |
| Cl.Cl.Cl.Cl.Cl.Cl.c1ccc2nc(CNCCN(CCNCc3ccc4ccccc4n3)CCNCc3ccc4ccccc4n3)ccc2c1 | inactive | > 40% | 1020 | inactive | inactive | <= 20% | 149 U/L | 3275 U/L | > 100 µM | 1.6 µM | Active | inactive | 707 | 84.8 | 2.3 µM | 1560 | <= 30% | 2.4 µM | 1.9 µM | 1360 | Activity [21]: 535 U/L; Activity [22]: 38%; IC50 [23]: 1560 µM; Activity [24]: < 10%; Activity [25]: Active |
| O=C(Cn1ccnc1[N+](=O)[O-])NCc1ccccc1 [BENZNIDAZOLE] |  | > 40% |  |  |  | > 40% |  | 3275 U/L |  |  |  |  |  |  |  |  | <= 30% |  |  |  | Activity [26]: 49 U/L; Activity [27]: <= 10%; Activity [28]: > 40%; Activity [29]: Active; Activity [30]: 75%; Activity [21]: 535 U/L |
| Cl.Cl.Cl.NCCN(CCN)CCNCc1ccc2c(c1)Cc1ccccc1-2 | Active |  | 89.6 | inactive | Active |  | 149 U/L |  | > 100 µM | 19.7 µM | Active | Active | 117 | 57.5 | 15.1 µM | 142 |  | 4.8 µM | 17.6 µM | 120 | Activity [26]: 49 U/L; Activity [27]: <= 10%; Activity [28]: > 40%; Activity [29]: 72%; Activity [30]: 5.9%; Activity [22]: 31%; IC50 [23]: 1770 µM; Activity [24]: < 10%; Activity [25]: Active |
